Source: US12697325B2 (TENNOR THERAPEUTICS (SUZHOU) LIMITED, priority 2021, dated 2026)
Read-outs that look alike come from different tables or passages of the source.

Experiments:
[1] = tested on: clinical strains of Acinetobacter baumannii; assay: Minimum inhibitory concentration (CLSI M07), Example 1, clinical strains; type: cell-based; settings: combination MIC = sum of the concentrations of the two compounds
Method: (§1) The minimum inhibitory concentration (MIC) was determined in accordance with the requirements of the Clinical and Laboratory Standards Institute (CLSI) M07 (for aerobic bacteria).
3.1 The compounds were diluted with water up to 100 times of the highest concentration tested.
The dilution steps are as follows: first dilute the compounds or antibiotics to 100 times of the highest final concentration tested, and then:
A 50 μL of sterile water and 50 μL of avibactam sodium mother liquid were added into the A row of the second 96-well plate, and 50 μL of water was added into each of the remaining wells. A 50 μL of liquid was pipetted from the A row and added into the B row; after being pipetted up and down to even, 50 μL of the solution was pipetted and added to the C row, and diluted in a 2-fold gradient in turn for a total of 6 times and then, 50 μL was removed from each well of the G row to obtain the compound solution diluted to a 2-fold gradient and then 4 μL was transferred to a 96-well test plate.
Aerobic bacteria: the strains were inoculated on MHA one day in advance and incubated overnight at 37° C. On the day of the assay, 5-6 single colonies were picked and suspended evenly in saline, and the bacterial concentration was adjusted to the turbidity of 0.5 McFarland standard (concentration is about 1×10^8 CFU/mL). The bacterial suspension was diluted 200 times with the corresponding liquid culture medium (Table 1), i.e., at a bacterial concentration of ~5×10^5 CFU/ml, then 192 μL was transferred to a 96-well round bottom plate to obtain the test plate. Then, the 96-well round bottom plate obtained above was placed into an incubator at 37° C. and 85% humidity to incubate for 20 h.

[2] = Pharmacokinetics in plasma and bronchoalveolar lavage fluid of female CD-1 mice; type: in vivo; settings: mouse, female CD-1 mice
Method: An appropriate amount of the test drug was accurately weighed and mixed with the appropriate volume of vehicle (5% DMSO+0.5% Tween 80 in normal saline) to obtain a clear solution for the test in Table 9. The formulation solution for injection was prepared to sterile filtration through a 0.22 μm filter prior to administration. The mice were dosed with the drug within 30 min after the formulated solution for injection was prepared. A 1.5 mL of the formulation solution for injection was transferred into a polypropylene microcentrifuge tube for dose verification by LC/UV or LC-MS/MS.
All blood samples were transferred to pre-frozen EDTA-K2 tubes and placed on wet ice until centrifugation. […]
Plasma: approximately 100 μL of blood sample was transferred into pre-cooled commercial EDTA-K2 tubes and placed on wet ice until centrifugation. After the blood samples were centrifuged at approximately 4° C. and 3, 200 g for 10 min, plasma was collected and transferred to pre-labeled 96-well plates or polypropylene tubes, flash frozen on dry ice, and stored at ≤−60° C. until the analysis by LC-MS/MS.
Serum: approximately 100 μL of blood sample was transferred into a tube without anticoagulant and placed on wet ice for approximately 30 min and centrifuged at 4° C. and 3,000 g for 10 min, and the serum was collected and transferred into pre-labeled PP tubes placed on wet ice. After the completion of all the collections, serum samples were stored at −60° C. until being sent to the animal experimental team to determine urea concentration.
Bronchoalveolar lavage fluid (BALF): pre-cooled tracheo-alveolar lavage fluid was injected into the trachea or predefined bronchi. After a full expansion of the lung tissue, the lavage fluid was slowly drawn out with a syringe 30 s later. The lung was lavaged three times. During the last lavage, the lung tissue was gently squeezed to restore the fluid. To prevent contamination of other lung tissues, the corresponding bronchi were ligated. Both lungs of the mice were perfused with 0.8 mL.
[…] Approximately 200 μL of the BALF samples were transferred into a polypropylene tube, rapidly frozen on dry ice, maintained at ≤−60° C., and sent to the animal experimental team to determine urea concentration. The remaining BALF samples (approximately 600 μL) were rapidly frozen on dry ice and maintained at ≤−60° C. until being submitted for drug concentration analysis by LC-MS/MS.

[3] = tested on: Acinetobacter baumannii strains; assay: Minimum inhibitory concentration (CLSI M07), Example 2, 20 strains; type: cell-based; settings: for MIC: read-out: MIC
Method: as §1
3.1 The compounds were diluted with DMSO up to 100 times of the highest concentration tested.
The steps of manual dilution are as follows (example): firstly, the compound or antibiotic was diluted to 100 times of the maximum final concentration tested, then 60 μL of compound mother liquor was added to the first column of the 96-well plate, and 30 μL of DMSO was added to each well in the second to the 12th column; 30 μL of the liquid was transferred from the first column to the second column. After being pipetted up and down to even, 30 μL was transferred to the third column, and was diluted in sequence at a 2-fold gradient for a total of 10 times; then 30 μL was removed from each well in the 11th column, then a compound solution diluted at 2-fold gradient was obtained and 1 μL was transferred to a 96-well test plate.
Aerobic bacteria: the strains were inoculated on MHA one day in advance and incubated overnight at 37° C. On the day of the assay, 5-6 single colonies were picked and suspended evenly in saline, and the bacterial concentration was adjusted to the turbidity of 0.5 McFarland standard (concentration is about 1×10^8 CFU/mL). The bacterial suspension was diluted at 200-fold with the corresponding liquid culture medium (Table 1), i.e., the bacterial concentration was ~5×10^5 CFU/ml, and then 100 μL of the liquid was transferred to a 96-well round bottom plate (the 96-well plate with compound prepared in 4.2, Echo method) to obtain the test plate. If the compound was manually diluted, then 99 μL of the solution was transferred into a 96-well round bottom plate. The 96-well round bottom plate obtained above was placed into an incubator at 37° C. and 85% humidity to incubate for 20 h.

MIC50 ([1]; Acinetobacter baumannii, read-out: MIC50): 32 µg/mL | MIC90 ([1]; Acinetobacter baumannii, read-out: MIC90): 32 µg/mL | MIC range [1]: 8 to 32 µg/mL | Kp ([2]; BALF/plasma, intravenous, 150 mg/kg, BALF column, read-out: AUC Ratio): 0.0248 | AUC(0-t) ([2]; bronchoalveolar lavage fluid (BALF), intravenous dripping 150 mg/kg, BALF, read-out: AUC0-last, BALF): 1310 ng·h/mL | Cmax ([2]; bronchoalveolar lavage fluid (BALF), intravenous dripping 150 mg/kg, BALF, read-out: Cmax, mean BALF concentration): 617 ng/mL | MRT last ([2]; bronchoalveolar lavage fluid (BALF), intravenous dripping 150 mg/kg, BALF, read-out: MRT0-last, BALF): 103 min | half-life ([2]; bronchoalveolar lavage fluid (BALF), intravenous dripping 150 mg/kg, BALF, read-out: T1/2, BALF (converted)): 43.5 min | Tmax ([2]; bronchoalveolar lavage fluid (BALF), intravenous dripping 150 mg/kg, BALF, read-out: Tmax, BALF): 180 min | clearance ([2]; intravenous dripping 150 mg/kg, plasma): 47.2 mL/min/kg | AUC(0-t) ([2]; intravenous dripping 150 mg/kg, plasma, read-out: AUC0-last, plasma): 52900 ng·h/mL | Cmax ([2]; intravenous dripping 150 mg/kg, plasma, read-out: Cmax, mean plasma concentration): 19600 ng/mL | MRT last ([2]; intravenous dripping 150 mg/kg, plasma, read-out: MRT0-last, plasma): 26.4 min | half-life ([2]; intravenous dripping 150 mg/kg, plasma, read-out: T1/2, plasma (converted)): 52.4 min | Tmax ([2]; intravenous dripping 150 mg/kg, plasma, read-out: Tmax, plasma): 60 min | Vd ([2]; intravenous dripping 150 mg/kg, plasma, read-out: Vdss): 1.26 L/kg | MIC ([3]; Acinetobacter baumannii, ATCC17978, strain ATCC 17978): 8 µg/mL | MIC ([3]; Acinetobacter baumannii, ATCC19606, strain ATCC 19606): 2 µg/mL | MIC ([3]; Acinetobacter baumannii, ATCCBAA1605, strain ATCC-BAA-1605): 32 µg/mL | MIC ([3]; Acinetobacter baumannii, ATCCBAA1789, strain ATCC-BAA-1789): 4 µg/mL | MIC ([3]; Acinetobacter baumannii, ATCCBAA1790, strain ATCC-BAA-1790): 16 µg/mL | MIC ([3]; Acinetobacter baumannii, ATCCBAA1791, strain ATCC-BAA-1791): 8 µg/mL | MIC ([3]; Acinetobacter baumannii, ATCCBAA1792, strain ATCC-BAA-1792): 32 µg/mL | MIC ([3]; Acinetobacter baumannii, ATCCBAA1793, strain ATCC-BAA-1793): 32 µg/mL | MIC ([3]; Acinetobacter baumannii, ATCCBAA1794, strain ATCC-BAA-1794): 8 µg/mL | MIC ([3]; Acinetobacter baumannii, ATCCBAA1795, strain ATCC-BAA-1795): 64 µg/mL | MIC ([3]; Acinetobacter baumannii, ATCCBAA1796, strain ATCC-BAA-1796): 16 µg/mL | MIC ([3]; Acinetobacter baumannii, ATCCBAA1797, strain ATCC-BAA-1797): 8 µg/mL | MIC ([3]; Acinetobacter baumannii, ATCCBAA1798, strain ATCC-BAA-1798): 16 µg/mL | MIC ([3]; Acinetobacter baumannii, ATCCBAA1799, strain ATCC-BAA-1799): 64 µg/mL | MIC ([3]; Acinetobacter baumannii, ATCCBAA1800, strain ATCC-BAA-1800): 32 µg/mL | MIC ([3]; Acinetobacter baumannii, strain ARLG-1791): 32 µg/mL | MIC ([3]; Acinetobacter baumannii, strain ARLG-1809): 32 µg/mL | MIC ([3]; Acinetobacter baumannii, strain ARLG-1852): 16 µg/mL | MIC ([3]; Acinetobacter baumannii, strain ARLG-1853): 32 µg/mL | MIC ([3]; Acinetobacter baumannii, strain ARLG-1881): 128 µg/mL | MIC50 ([3]; Acinetobacter baumannii, Example 2, 20 strains, read-out: MIC50): 32 µg/mL | MIC90 ([3]; Acinetobacter baumannii, Example 2, 20 strains, read-out: MIC90): 64 µg/mL | MIC range ([3]; Example 2, 20 strains): 2 to 128 µg/mL | MIC of this strain BAA-1795 (component in the combination) ([3]; strain BAA-1795): 8 µg/mL | MIC of the strain BAA-1795 (component in the combination) ([3]; strain BAA-1795, sulbactam/avibactam 4:1, concentration of the named component): 8 µg/mL
SMILES: CC1(C)[C@H](C(=O)[O][Na+])N2C(=O)C[C@H]2S1(=O)=O [Sulbactam sodium, sulbactam sodium]
